Assay results reported in patent US9580437B2, “Triazolopyrimidine compounds and uses thereof” (Novartis AG, priority 2014, dated 2017).

Experiments:
EED (1-441)-His protein = EED (1-441)-His protein (Homo sapiens (Human), UniProt O75530); assay: EED-H3K27Me3 peptide competition binding assay by AlphaScreen; conditions: read-out: (a) IC50 EED Alphascreen binding Qualified
Source text: EED-H3K27Me3 peptide competition binding assay by AlphaScreen (α-screen)

[1] = target: wild type PRC2 (wtPRC2) complex (Homo sapiens (Human), UniProt O75530); assay: EED LC-MS assay; format: biochemical; conditions: read-out: (b) IC50 EED LC-MS Qualified
Method: A 6 μL solution of 3 μM of the peptide substrate H3K27Me0 (histone H3[21-44]-biotin) in reaction buffer was added to initiate each reaction. […] ELISA (H3K27 Methylation) Assay

Chain of wild type PRC2 (wtPRC2) complex (O75530 whole entry): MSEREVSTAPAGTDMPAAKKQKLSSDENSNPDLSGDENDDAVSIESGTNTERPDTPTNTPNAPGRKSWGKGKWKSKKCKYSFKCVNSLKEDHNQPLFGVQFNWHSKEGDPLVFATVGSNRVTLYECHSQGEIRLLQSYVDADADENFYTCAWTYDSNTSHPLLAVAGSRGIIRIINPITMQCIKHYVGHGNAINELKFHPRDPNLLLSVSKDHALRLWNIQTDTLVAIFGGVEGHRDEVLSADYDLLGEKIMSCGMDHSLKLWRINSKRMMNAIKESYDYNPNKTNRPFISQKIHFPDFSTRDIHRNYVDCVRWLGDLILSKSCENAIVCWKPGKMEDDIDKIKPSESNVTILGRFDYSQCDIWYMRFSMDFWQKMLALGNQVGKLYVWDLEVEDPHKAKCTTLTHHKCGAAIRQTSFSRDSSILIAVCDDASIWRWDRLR
Chain of wild type PRC2 (wtPRC2) complex (Q15910 whole entry partner): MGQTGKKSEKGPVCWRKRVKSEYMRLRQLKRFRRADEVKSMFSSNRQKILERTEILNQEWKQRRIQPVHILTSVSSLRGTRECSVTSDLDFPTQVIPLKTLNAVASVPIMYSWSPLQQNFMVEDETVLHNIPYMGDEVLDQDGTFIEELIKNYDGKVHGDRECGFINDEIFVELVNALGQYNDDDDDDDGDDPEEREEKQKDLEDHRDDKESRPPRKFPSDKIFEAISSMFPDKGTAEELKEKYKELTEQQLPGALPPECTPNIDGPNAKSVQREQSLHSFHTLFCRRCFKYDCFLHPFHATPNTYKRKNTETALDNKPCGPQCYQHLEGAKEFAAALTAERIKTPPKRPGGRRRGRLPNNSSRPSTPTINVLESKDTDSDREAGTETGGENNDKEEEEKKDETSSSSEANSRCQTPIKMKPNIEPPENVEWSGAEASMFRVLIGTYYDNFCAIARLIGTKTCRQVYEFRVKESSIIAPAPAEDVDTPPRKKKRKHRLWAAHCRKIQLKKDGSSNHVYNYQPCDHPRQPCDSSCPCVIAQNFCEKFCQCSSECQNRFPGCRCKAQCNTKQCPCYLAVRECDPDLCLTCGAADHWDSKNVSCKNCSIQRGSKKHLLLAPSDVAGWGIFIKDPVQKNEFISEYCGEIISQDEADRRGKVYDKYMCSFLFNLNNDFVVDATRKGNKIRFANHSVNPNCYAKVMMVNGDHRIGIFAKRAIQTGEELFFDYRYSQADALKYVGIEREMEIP
Chain of wild type PRC2 (wtPRC2) complex (Q15022 whole entry partner): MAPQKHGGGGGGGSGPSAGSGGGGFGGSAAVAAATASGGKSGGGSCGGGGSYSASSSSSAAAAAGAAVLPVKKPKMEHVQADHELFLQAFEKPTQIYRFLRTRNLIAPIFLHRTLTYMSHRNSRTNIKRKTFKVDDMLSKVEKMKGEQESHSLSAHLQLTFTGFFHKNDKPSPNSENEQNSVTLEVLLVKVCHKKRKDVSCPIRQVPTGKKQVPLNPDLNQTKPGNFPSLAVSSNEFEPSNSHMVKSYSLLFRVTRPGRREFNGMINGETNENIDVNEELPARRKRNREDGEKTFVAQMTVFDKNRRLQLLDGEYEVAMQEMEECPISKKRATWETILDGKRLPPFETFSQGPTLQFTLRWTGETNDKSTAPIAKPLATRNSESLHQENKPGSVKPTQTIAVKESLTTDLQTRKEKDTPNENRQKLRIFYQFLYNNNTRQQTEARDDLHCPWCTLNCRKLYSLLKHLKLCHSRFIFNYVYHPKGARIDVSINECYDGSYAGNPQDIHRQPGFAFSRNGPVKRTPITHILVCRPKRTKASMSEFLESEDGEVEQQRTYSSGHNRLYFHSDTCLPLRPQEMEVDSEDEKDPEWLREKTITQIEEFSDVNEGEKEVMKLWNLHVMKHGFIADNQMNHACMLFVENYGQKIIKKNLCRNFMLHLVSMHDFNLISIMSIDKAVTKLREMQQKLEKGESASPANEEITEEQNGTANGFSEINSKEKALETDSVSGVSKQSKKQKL
Chain of EED (1-441)-His protein (O75530 whole entry): as the sequence (O75530 whole entry) above

| IC50 (EED (1-441)-His protein) [nM] | IC50 [1] [nM] | Compound |
| --- | --- | --- |
| 5.9 | 11.3 | Fc1ccc2c(c1CNc1ncc(-c3ccc(C(F)(F)F)nc3)c3nncn13)CCO2 [Example 160, N-((5-fluoro-2,3-dihydrobenzofuran-4-yl)methyl)-8-(6-(trifluoromethyl)pyridin-3-yl)-[1,2,4]triazolo[4,3-c]pyrimidin-5-amine] |
| 37.4 | 22.5 | CS(=O)(=O)c1ccc(-c2cnc(NCc3cccc4occc34)n3cnnc23)cc1 [Example 214, N-(benzofuran-4-ylmethyl)-8-(4-(methylsulfonyl)phenyl)-[1,2,4]triazolo[4,3-c]pyrimidin-5-amine] |
| 15.6 | 44.7 | COCCn1nc(C)c(-c2cnc(NCc3cccc4c3CCO4)n3cnnc23)c1C [Example 66, N-((2,3-dihydrobenzofuran-4-yl)methyl)-8-(1-(2-methoxyethyl)-3,5-dimethyl-1H-pyrazol-4-yl)-[1,2,4]triazolo[4,3-c]pyrimidin-5-amine] |
| 132 | 183 | O=C(c1ccc(-c2cnc(NCc3cccc4occc34)n3cnnc23)cc1)N1CCCC1 [Example 216, (4-(5-((benzofuran-4-ylmethyl)amino)-[1,2,4]triazolo[4,3-c]pyrimidin-8-yl)phenyl)(pyrrolidin-1-yl)methanone] |
| 32.2 | 28.8 | CN1CCN(c2ccc(-c3cnc(NCc4cccc5occc45)n4cnnc34)cn2)CC1 [Example 211, N-(benzofuran-4-ylmethyl)-8-(6-(4-methylpiperazin-1-yl)pyridin-3-yl)-[1,2,4]triazolo[4,3-c]pyrimidin-5-amine] |
| 7.8 | 14.8 | Cc1nn(C(C)C)c(C)c1-c1cnc(NCc2cccc3c2CCO3)n2cnnc12 [Example 153, N-((2,3-dihydrobenzofuran-4-yl)methyl)-8-(1-isopropyl-3,5-dimethyl-1H-pyrazol-4-yl)-[1,2,4]triazolo[4,3-c]pyrimidin-5-amine] |
| 20.3 | 21.2 | CC(C)S(=O)(=O)c1ccc(-c2cnc(NCc3cccc4occc34)n3cnnc23)cc1 [Example 215, N-(benzofuran-4-ylmethyl)-8-(4-(isopropylsulfonyl)phenyl)-[1,2,4]triazolo[4,3-c]pyrimidin-5-amine] |
| 5 | 13.7 | Cc1cc(C(=O)N2CCCC2)ncc1-c1cnc(NCc2c(F)ccc3c2CCO3)n2cnnc12 [Example 130, (5-(5-(((5-fluoro-2,3-dihydrobenzofuran-4-yl)methyl)amino)-[1,2,4]triazolo[4,3-c]pyrimidin-8-yl)-4-methylpyridin-2-yl)(pyrrolidin-1-yl)methanone] |
| 43.5 | 64 | CC(c1ccc(-c2cnc(NCc3c(F)ccc4c3CCO4)n3cnnc23)cc1)N1CCCC1 (stereo not drawn) [Example 46, N-((5-fluoro-2,3-dihydrobenzofuran-4-yl)methyl)-8-(4-(1-(pyrrolidin-1-yl)ethyl)phenyl)-[1,2,4]triazolo[4,3-c]pyrimidin-5-amine] |
| 6.8 | 15.9 | Cc1cnn(-c2cnc(NCc3c(F)ccc4c3CCO4)n3cnnc23)c1 [Example 239, N-((5-fluoro-2,3-dihydrobenzofuran-4-yl)methyl)-8-(4-methyl-1H-pyrazol-1-yl)-[1,2,4]triazolo[4,3-c]pyrimidin-5-amine] |
| 6.1 | 7.5 | Cn1ncc(-c2cnc(NCc3c(F)ccc4c3CCO4)n3cnnc23)c1CO [Example 227, (4-(5-(((5-fluoro-2,3-dihydrobenzofuran-4-yl)methyl)amino)-[1,2,4]triazolo[4,3-c]pyrimidin-8-yl)-1-methyl-1H-pyrazol-5-yl)methanol] |
| 17 | 45.3 | COc1ccc(-c2cnc(NCc3c(F)ccc4c3CCO4)n3cnnc23)c(C)n1 [Example 155, N-((5-fluoro-2,3-dihydrobenzofuran-4-yl)methyl)-8-(6-methoxy-2-methylpyridin-3-yl)-[1,2,4]triazolo[4,3-c]pyrimidin-5-amine] |
| 3.9 | 11.5 | Cc1cn(-c2cnc(NCc3c(F)ccc4c3CCO4)n3cnnc23)cn1 [Example 233, N-((5-fluoro-2,3-dihydrobenzofuran-4-yl)methyl)-8-(4-methyl-1H-imidazol-1-yl)-[1,2,4]triazolo[4,3-c]pyrimidin-5-amine] |
| 25.2 | 26 | COc1ccc(-c2cnc(NCc3cccc4c3CCO4)n3cnnc23)cn1 [Example 21, N-((2,3-dihydrobenzofuran-4-yl)methyl)-8-(6-methoxypyridin-3-yl)-[1,2,4]triazolo[4,3-c]pyrimidin-5-amine] |
| 19 | 17.4 | CNc1cc(F)c(-c2cnc(NCc3cccc4c3CCO4)n3cnnc23)cn1 [Example 111, N-((2,3-dihydrobenzofuran-4-yl)methyl)-8-(4-fluoro-6-(methylamino)pyridin-3-yl)-[1,2,4]triazolo[4,3-c]pyrimidin-5-amine] |
| 42.4 | 338 | Cc1ncccc1-c1c(C)nc(NCc2c(F)ccc3c2CCO3)n2cnnc12 [Example 203, N-((5-fluoro-2,3-dihydrobenzofuran-4-yl)methyl)-7-methyl-8-(2-methylpyridin-3-yl)-[1,2,4]triazolo[4,3-c]pyrimidin-5-amine] |
| 75.6 | 68.6 | CCOc1ccc(-c2cnc(NCc3cccc4c3CCO4)n3cnnc23)cn1 [Example 63, N-((2,3-dihydrobenzofuran-4-yl)methyl)-8-(6-ethoxypyridin-3-yl)-[1,2,4]triazolo[4,3-c]pyrimidin-5-amine] |
| 19.5 | 47 | Cc1ncc(-c2cnc(NCc3cccc4c3CCO4)n3cnnc23)cn1 [Example 60, N-((2,3-dihydrobenzofuran-4-yl)methyl)-8-(2-methylpyrimidin-5-yl)-[1,2,4]triazolo[4,3-c]pyrimidin-5-amine] |
| 4.7 | 6.2 | COc1ncc(-c2cnc(NCc3c(F)ccc4c3CCO4)n3cnnc23)cn1 [Example 174, N-((5-fluoro-2,3-dihydrobenzofuran-4-yl)methyl)-8-(2-methoxypyrimidin-5-yl)-[1,2,4]triazolo[4,3-c]pyrimidin-5-amine] |
| 7.5 | 10.6 | Cc1nc(OC2CC2)ncc1-c1cnc(NCc2c(F)ccc3c2CCO3)n2cnnc12 [Example 225, 8-(2-cyclopropoxy-4-methylpyrimidin-5-yl)-N-((5-fluoro-2,3-dihydrobenzofuran-4-yl)methyl)-[1,2,4]triazolo[4,3-c]pyrimidin-5-amine] |
| 4.2 | 6.7 | CC(C)(O)c1ccc(-c2cnc(NCc3cccc4c3CCO4)n3cnnc23)cn1 [Example 99, 2-(5-(5-(((2,3-dihydrobenzofuran-4-yl)methyl)amino)-[1,2,4]triazolo[4,3-c]pyrimidin-8-yl)pyridin-2-yl)propan-2-ol] |
| 9 | 18.9 | Cc1noc(C)c1-c1cnc(NCc2c(F)ccc3c2CCO3)n2cnnc12 [Example 71, 8-(3,5-dimethylisoxazol-4-yl)-N-((5-fluoro-2,3-dihydrobenzofuran-4-yl)methyl)-[1,2,4]triazolo[4,3-c]pyrimidin-5-amine] |
|  | 182 | Cc1ncccc1-c1cnc(NCc2c(F)ccc3occc23)n2cnnc12 [Example 207, N-((5-fluorobenzofuran-4-yl)methyl)-8-(2-methylpyridin-3-yl)-[1,2,4]triazolo[4,3-c]pyrimidin-5-amine] |
